One assay concerns the target EGFR L858R/T790M (Homo sapiens, UniProt P00533, L858R/T790M). In words: HTRF-based EGFR biochemical assay, L858R/T790M. The settings on record: 100 μM ATP, enzyme 0.02 nM. The protocol: (§1) EGFR biochemical activity measurements were carried out using the homogeneous time-resolved fluorescence (HTRF) assay (Cisbio). Inhibitors and DMSO normalizations were first dispensed to empty black low-volume 384-well plates (Corning) with D300 digital liquid dispenser (HP). All reactions were carried out at room temperature and solutions were added to plates with a Multidrop Combi Reagent Dispenser (ThermoFisher). The reaction mixture (10 μL final volume) contained 1 μM tyrosine kinase peptide-biotin substrate and mutant EGFR in a reaction buffer (50 mM HEPES pH 7.0, 5 mM MgCl2, 1 mM MnCl2, 0.01% BSA, 2 mM TCEP, 0.1 mM NaVO4). […] Enzyme reaction solution (2× concentrations, 5 μL) was added to 384-well plates containing compounds and incubated for 30 mins. Enzyme reactions were initiated with the addition of 5 μL of ATP to a final concentration of 100 μM and reacted for 20 mins.
Background: In TR-FRET formats the signal depends on donor and acceptor labels being close together.

A further assay concerns the target EGFR L858R (Homo sapiens, UniProt P00533, L858R). In words: HTRF-based EGFR biochemical assay, L858R. The settings on record: 100 μM ATP, enzyme 0.1 nM. As for the experimental part:
as §1

Each structure is given as a SMILES string.

Chain of EGFR L858R (P00533 25-1210 L858R): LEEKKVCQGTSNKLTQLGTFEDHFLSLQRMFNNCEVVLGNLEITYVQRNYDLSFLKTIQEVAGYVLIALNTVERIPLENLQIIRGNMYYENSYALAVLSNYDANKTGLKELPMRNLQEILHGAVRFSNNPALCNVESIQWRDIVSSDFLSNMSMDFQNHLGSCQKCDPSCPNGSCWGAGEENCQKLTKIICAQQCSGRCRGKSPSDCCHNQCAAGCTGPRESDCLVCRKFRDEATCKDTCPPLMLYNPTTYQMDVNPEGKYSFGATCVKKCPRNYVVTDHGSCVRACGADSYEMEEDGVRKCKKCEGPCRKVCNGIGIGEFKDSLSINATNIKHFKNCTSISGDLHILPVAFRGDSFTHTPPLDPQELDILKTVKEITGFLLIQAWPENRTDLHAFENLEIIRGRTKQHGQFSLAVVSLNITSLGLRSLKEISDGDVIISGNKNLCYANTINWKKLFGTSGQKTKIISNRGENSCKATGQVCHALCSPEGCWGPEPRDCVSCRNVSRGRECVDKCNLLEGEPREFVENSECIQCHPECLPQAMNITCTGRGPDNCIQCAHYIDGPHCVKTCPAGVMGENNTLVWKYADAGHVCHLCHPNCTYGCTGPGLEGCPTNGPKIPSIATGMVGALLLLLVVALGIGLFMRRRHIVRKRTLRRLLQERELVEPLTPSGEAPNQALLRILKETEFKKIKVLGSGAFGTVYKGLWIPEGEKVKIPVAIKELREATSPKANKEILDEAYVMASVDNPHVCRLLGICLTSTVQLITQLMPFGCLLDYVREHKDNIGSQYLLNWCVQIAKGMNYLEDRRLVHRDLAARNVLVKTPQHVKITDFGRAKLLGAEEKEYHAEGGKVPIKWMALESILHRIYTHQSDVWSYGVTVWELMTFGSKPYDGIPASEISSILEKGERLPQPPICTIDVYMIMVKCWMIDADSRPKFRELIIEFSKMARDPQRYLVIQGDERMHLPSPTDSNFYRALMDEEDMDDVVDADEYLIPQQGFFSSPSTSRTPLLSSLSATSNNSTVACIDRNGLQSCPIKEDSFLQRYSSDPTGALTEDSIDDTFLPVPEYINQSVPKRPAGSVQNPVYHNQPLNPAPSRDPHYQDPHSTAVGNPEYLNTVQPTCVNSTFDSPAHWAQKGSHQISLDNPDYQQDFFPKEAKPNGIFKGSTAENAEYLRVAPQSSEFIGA
Chain of EGFR L858R/T790M (P00533 25-1210 T790M/L858R): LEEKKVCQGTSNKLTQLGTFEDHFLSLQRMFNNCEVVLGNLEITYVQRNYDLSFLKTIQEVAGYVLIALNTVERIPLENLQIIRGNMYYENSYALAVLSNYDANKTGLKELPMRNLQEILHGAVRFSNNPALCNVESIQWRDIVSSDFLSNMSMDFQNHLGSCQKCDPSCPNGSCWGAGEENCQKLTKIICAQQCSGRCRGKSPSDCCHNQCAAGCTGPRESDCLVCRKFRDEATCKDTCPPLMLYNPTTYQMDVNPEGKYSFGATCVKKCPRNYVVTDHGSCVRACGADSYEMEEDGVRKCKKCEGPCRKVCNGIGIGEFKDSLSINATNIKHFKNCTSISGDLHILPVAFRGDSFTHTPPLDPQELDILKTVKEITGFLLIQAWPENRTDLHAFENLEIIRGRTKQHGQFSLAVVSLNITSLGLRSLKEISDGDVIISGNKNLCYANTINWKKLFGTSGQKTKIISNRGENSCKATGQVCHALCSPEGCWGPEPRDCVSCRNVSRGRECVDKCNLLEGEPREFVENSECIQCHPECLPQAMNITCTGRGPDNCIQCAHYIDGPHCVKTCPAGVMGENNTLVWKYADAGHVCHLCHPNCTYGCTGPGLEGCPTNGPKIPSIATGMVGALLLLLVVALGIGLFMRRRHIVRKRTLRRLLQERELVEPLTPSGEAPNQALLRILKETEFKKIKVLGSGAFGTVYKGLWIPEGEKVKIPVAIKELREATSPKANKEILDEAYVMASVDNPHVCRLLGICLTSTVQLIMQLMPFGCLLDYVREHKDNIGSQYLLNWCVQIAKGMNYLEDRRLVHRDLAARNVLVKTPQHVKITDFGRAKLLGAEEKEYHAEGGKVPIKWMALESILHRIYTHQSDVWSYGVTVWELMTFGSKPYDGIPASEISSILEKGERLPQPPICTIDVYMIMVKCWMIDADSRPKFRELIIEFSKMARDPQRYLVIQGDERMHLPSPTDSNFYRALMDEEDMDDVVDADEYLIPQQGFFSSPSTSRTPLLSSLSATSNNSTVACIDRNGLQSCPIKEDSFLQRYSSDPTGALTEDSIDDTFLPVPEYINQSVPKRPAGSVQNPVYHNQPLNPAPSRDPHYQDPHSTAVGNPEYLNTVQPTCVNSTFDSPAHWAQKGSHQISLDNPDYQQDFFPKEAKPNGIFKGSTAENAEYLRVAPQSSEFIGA

On to `CSc1nc(-c2cccc(NC(=O)C3CCCC3)c2)c(-c2ccnc(NC(C)=O)c2)[nH]1` [Compound 001, N-(3-(5-(2-acetamidopyridin-4-yl)-2-(methylthio)-1H-imidazol-4-yl)phenyl)cyclopentane-carboxamide], for which the IC50 (in general, the concentration that gives 50% inhibition) worked out at 16.7 µM against EGFR L858R/T790M and 4.2 µM at EGFR L858R.
For `CSc1nc(-c2cccc(NC(=O)C3CC3)c2)c(-c2ccnc(NC(C)=O)c2)[nH]1` [Compound 003, N-(3-(5-(2-acetamidopyridin-4-yl)-2-(methylthio)-1H-imidazol-4-yl)phenyl)cyclopropane-carboxamide], the values for the IC50 against EGFR L858R/T790M and at EGFR L858R were 14.5 µM and 4.23 µM, respectively.
In the case of `CSc1nc(-c2cccc(NC(=O)Nc3ccccc3)c2)c(-c2ccnc(NC(C)=O)c2)[nH]1` [Compound 005, N-(4-(2-(methylthio)-4-(3-(3-phenylureido)phenyl)-1H-imidazol-5-yl)pyridin-2-yl)acetamide], the figures for the IC50 on EGFR L858R/T790M and against EGFR L858R were 3.71 µM and 3.6 µM, respectively.
Regarding `CSc1nc(-c2cc(NC(=O)c3c(F)cccc3F)cs2)c(-c2ccnc(NC(C)=O)c2)[nH]1` [Compound 011, N-(5-(5-(2-acetamidopyridin-4-yl)-2-(methylthio)-1H-imidazol-4-yl)thiophen-3-yl)-2,6-difluorobenzamide], the IC50 against EGFR L858R/T790M and against EGFR L858R was more than 100 µM throughout.
As to `CSc1nc(-c2cc(NC(=O)Cc3ccccc3)cs2)c(-c2ccnc(NC(C)=O)c2)[nH]1` [Compound 012, N-(5-(5-(2-acetamidopyridin-4-yl)-2-(methylthio)-1H-imidazol-4-yl)thiophen-3-yl)-2-phenylacetamide], the IC50 on EGFR L858R/T790M and on EGFR L858R was more than 100 µM in each case.
For the compound `CSc1nc(-c2cccc(NC(=O)Nc3ccc(Br)cc3)c2)c(-c2ccnc(NC(C)=O)c2)[nH]1` [Compound 015, N-(4-(4-(3-(3-(4-bromophenyl)ureido)phenyl)-2-(methylthio)-1H-imidazol-5-yl)pyridin-2-yl)acetamide], the IC50 against EGFR L858R/T790M was 5.94 µM; at EGFR L858R, 6.43 µM.
Consider `CSc1nc(-c2cccc(NC(=O)Nc3cccc(C(F)(F)F)c3)c2)c(-c2ccnc(NC(C)=O)c2)[nH]1` [Compound 016, N-(4(2-(methylthio)-4-(3-(3-(3-(trifluoromethyl)phenyl)ureido)phenyl)-1H-imidazol-5-yl)pyridin-2-yl)acetamide], for which the half-inhibitory concentration (IC50) against EGFR L858R/T790M came to 0.857 µM; against EGFR L858R, 0.512 µM.
As for `CSc1nc(-c2cccc(NC(=O)Nc3ccc(F)cc3)c2)c(-c2ccnc(NC(C)=O)c2)[nH]1` [Compound 017, N-(4-(4-(3-(3-(4-fluorophenyl)ureido)phenyl)-2-(methylthio)-1H-imidazol-5-yl)pyridin-2-yl)acetamide], the figures for the IC50 on EGFR L858R/T790M and at EGFR L858R were 5.3 µM and 4.13 µM, respectively.
On to `CSc1nc(-c2cccc(NC(=O)Nc3ccc(F)c(Cl)c3)c2)c(-c2ccnc(NC(C)=O)c2)[nH]1` [Compound 018], for which the figures for the IC50 against EGFR L858R/T790M and against EGFR L858R were 2.2 µM and 1.6 µM, respectively.
For `CSc1nc(-c2ccccc2NC(=O)Nc2ccc(Br)cc2)c(-c2ccnc(NC(C)=O)c2)[nH]1` [Compound 019, N-(4-(4-(2(3-(4-bromophenyl)ureido)phenyl)-2-(methylthio)-1H-imidazol-5-yl)pyridin-2-yl)acetamide] the same measures were more than 100 µM and more than 100 µM.
On to `CSc1nc(-c2cccc(NC(=O)Nc3ccccc3)c2)c(-c2ccnc(NC(C)=O)c2)[nH]1` [Compound 020, N-(4-(2-(methylthio)-4-(3-(3-phenylureido)phenyl)-1H-imidazol-5-yl)pyridin-2-yl)acetamide], for which the IC50 on EGFR L858R/T790M and against EGFR L858R was more than 100 µM throughout.
Take `CSc1nc(-c2ccccc2NC(=O)C2CCCC2)c(-c2ccnc(NC(C)=O)c2)[nH]1` [Compound 022, N-(2(5-(2-acetamidopyridin-4-yl)-2-(methylthio)-1H-imidazol-4-yl)phenyl)cyclopentane-carboxamide]: the IC50 on EGFR L858R/T790M and at EGFR L858R was more than 100 µM throughout.
Turning to `CSc1nc(-c2ccccc2NC(=O)c2cccc3[nH]ccc23)c(-c2ccnc(NC(C)=O)c2)[nH]1` [Compound 023, N-(2-(5-(2-acetamidopyridin-4-yl)-2-(methylthio)-1H-imidazol-4-yl)phenyl)-1H-indole-4-carboxamide], the IC50 against EGFR L858R/T790M and against EGFR L858R was more than 100 µM throughout.
As for `COc1cccc(C(=O)Nc2ccccc2-c2nc(SC)[nH]c2-c2ccnc(NC(C)=O)c2)c1` [Compound 025, N-(2-(5-(2-acetamidopyridin-4-yl)-2-(methylthio)-1H-imidazol-4-yl)phenyl)-3-methoxybenzamide], the IC50 at EGFR L858R/T790M and at EGFR L858R was more than 100 µM in each case.
`CSc1nc(-c2ccccc2NC(=O)c2cc(C)cs2)c(-c2ccnc(NC(C)=O)c2)[nH]1` [Compound 026, N-(2-(5-(2-acetamidopyridin-4-yl)-2-(methylthio)-1H-imidazol-4-yl)phenyl)-4-methyl-thiophene-2-carboxamide]: the IC50 against EGFR L858R/T790M and against EGFR L858R was more than 100 µM each time.
As for `CSc1nc(-c2ccccc2NC(=O)c2ccco2)c(-c2ccnc(NC(C)=O)c2)[nH]1` [Compound 027, N-(2-(5-(2-acetamidopyridin-4-yl)-2-(methylthio)-1H-imidazol-4-yl)phenyl)furan-2-carboxamide], the IC50 on EGFR L858R/T790M and on EGFR L858R was more than 100 µM throughout.
On to `CSc1nc(-c2ccccc2NC(=O)c2ccccc2O)c(-c2ccnc(NC(C)=O)c2)[nH]1` [Compound 032, N-(2-(5-(2-acetamidopyridin-4-yl)-2-(methylthio)-1H-imidazol-4-yl)phenyl)-2-hydroxybenzamide], for which the IC50 against EGFR L858R/T790M and against EGFR L858R was more than 100 µM each time.
With `CSc1nc(-c2ccccc2NC(=O)CCc2ccccc2)c(-c2ccnc(NC(C)=O)c2)[nH]1` [Compound 033, N-(2(5-(2-acetamidopyridin-4-yl)-2-(methylthio)-1H-Imidazol-4-yl)phenyl)-3-phenylpropanamide], the IC50 at EGFR L858R/T790M and against EGFR L858R was more than 100 µM each time.
With `CSc1nc(-c2cccc(NC(=O)CCc3ccccc3)c2)c(-c2ccnc(NC(C)=O)c2)[nH]1` [Compound 037, N-(3-(5-(2-acetamidopyridin-4-yl)-2-(methylthio)-1H-imidazol-4-yl)phenyl)-3-phenylpropanamide], the IC50 at EGFR L858R/T790M was 7.86 µM; at EGFR L858R, 1.88 µM.
For `CSc1nc(-c2ccc(F)c(NC(=O)Cc3c(F)cccc3F)c2)c(-c2ccnc(NC(C)=O)c2)[nH]1` [Compound 052, N-(5-(5-(2-acetamidopyridin-4-yl)-2-(methylthio)-1H-Imidazol-4-yl)-2-fluorophenyl)-2-(2,6-difluorophenyl)acetamide] the same measures were 1.89 µM and 0.969 µM.
Take `CSc1nc(-c2cccc(NC(=O)Cc3c(F)cccc3F)c2)c(-c2ccnc(NC(C)=O)c2)[nH]1` [Compound 053, N-(3-(5-(2-acetamidopyridin-4-yl)-2-(methylthio)-1H-Imidazol-4-yl)phenyl)-2-(2,6-difluorophenyl)acetamide]: the figures for the IC50 on EGFR L858R/T790M and at EGFR L858R were 0.799 µM and 1.3 µM, respectively.
Consider `CSc1nc(-c2cccc3c2CCC3NC(=O)c2c(F)cccc2F)c(-c2ccnc(NC(C)=O)c2)[nH]1` (centres unmarked) [Compound 055, N-(4-(5-(2-acetamidopyridin-4-yl)-2-(methylthio)-1H-imidazol-4-yl)-2,3-dihydro-1H-inden-1-yl)-2,6-difluorobenzamide], for which the IC50 on EGFR L858R/T790M and on EGFR L858R was more than 100 µM each time.

For the origin of these results see patent US20230406838A1, “MUTANT SELECTIVE EGFR INHIBITORS AND METHODS OF USE THEREOF” (Dana-Farber Cancer Institute, Inc., priority 2020, published 2023).
